Measurements reported in PMC9373486, “Exploring in vitro anti-proliferative and anti-inflammatory activities of Prasachandaeng remedy, and its bioactive compounds” (BMC Complementary Medicine and Therapies, 2022).
In brackets after ≈: the same amount, converted by molar mass. Where a name gives a salt, the structure may show the parent alone.

Experiments:
[1] = tested on: TNF-α production; assay: Inhibition of LPS-induced TNF-α production in RAW 264.7 (ELISA); format: cell-based, murine; settings: Mus musculus, RAW264.7, LPS-induced RAW 264.7, n = 3
Experimental: The tumor necrosis factor-alpha (TNF-α) is the principal mediator of inflammation in response to gram-negative bacteria. It is mainly produced by LPS-activated mononuclear phagocytes. The TNF- α ELISA can quantify TNF-α in the supernatant of cell culture medium. The assay was carried out using the TNF-alpha ELISA kit (Thermo Fisher® scientific, USA). The murine macrophage cell line (RAW 264.7) was cultured in DMEM medium containing 10% heat-inactivated FBS, 10^4 µg/mL P/S. Firstly, the viable cells were counted using trypan blue exclusion in a haemocytometer. The single cell suspension of murine macrophage cell line was diluted with the medium to provide an optimal density of 10^5. The cell suspension was seeded, in a 100 µL/well, in 96-well plates and incubated at 37 °C with 5% CO2 atmosphere at 95% humidity for 24 h. […] Then, the test sample was added and incubated for 24 h. The control included 2% DMSO solution mixed with the medium, in place of the test samples in the analyses. This protocol was followed according to TNF-α ELISA kit (Thermo Fisher® scientific, USA). […] The concentrations of TNF- α in the wells were measured with a microplate reader at 450 nm. The % inhibition of TNF-α production was calculated using the equation below, and the IC50 values were calculated using the Prism program. […]

[2] = %cytotoxicity reported with the TNF-α assay; format: cell-based, murine; settings: mouse, RAW 264.7 cells, n = 3, read-out: [%cytotoxicity] at conc. 100 µg/mL (converted)
Experimental: Table 7 Anti-inflammatory on LPS-induced tumor necrosis factor-alpha production of D.cochinchinensis and PSD remedy | column: Inhibition of TNF-α production / %Inhibition and [%cytotoxicity] at conc. 100 µg/mL

[3] = tested on: hepatocarcinoma cell line (HepG2); assay: Cytotoxic activity, antiproliferative SRB assay, HepG2; format: cell-based, human; settings: for IC50: Homo sapiens, HepG2, mean ± SEM, n = 3; for IC50 / Cytotoxicity against HepG2 (in words): SRB assay; for Selective index (SI), HepG2: IC50 of non-cancerous cells (HaCaT) / IC50 of HepG2
Experimental: (§1) Hepatocellular carcinoma (HepG2; ATTC No. HB-8065) was cultured in Minimum Essential Media (MEM) supplemented with 10% heated-inactivated fetal bovine serum (FBS) and 1% penicillin–streptomycin (P/S). Cholangiocarcinoma cell line (KKU-M156) was cultured in HAM's F12 supplemented with 10% FBS, 1% P/S, and 12.5 mM HEPES. In addition, one non-cancerous human keratinocyte cell line (HaCaT; No. 300493-SF) was cultured in Dulbecco's Modified Eagle Medium (DMEM) supplemented with 10% FBS and 1% P/S [13].
(§2) This assay followed the previously described protocol. The various concentrations (1, 10, 50, and 100 µg/mL) of the crude extracts were investigated against two human cancer cell lines and one non-cancerous cell line. The cell lines were washed with PBS and the cells were detached with 0.025% trypsin–EDTA to make a single cell suspension. A 5 mL medium was then added to the flask to stop the trypsin–EDTA activity. The viable cells were counted by trypan blue exclusion in a haemocytometer. A single-cell suspensions density of HepG2, KKU-M156, and HaCaT were diluted with each medium to give optimal densities of 2 × 10^3, 3 × 10^3, and 8 × 10^3 cells/well, respectively. The 100 µL/well of these cell suspensions were seeded in 96-well plates and incubated at 37 °C with 5% CO2 at 95% humidity for 24 h. Then, 100 µL of a sample solution was added to each well. The control was the medium mixed with 2% DMSO. The 96-well plates were incubated at 37 °C with 5% CO2 at 95% humidity for 72 h. The mixture in the well was removed and washed with 200 µL fresh medium. The 96-well plate was further incubated for 72 h, then the cell in 96-well plates was fixed with 40%TCA and washed with water five times. Finally, the fixed cell in the 96-well plate was strained with Sulforhodamine B sodium salt and the percentage of inhibition of cell growth was measured colorimetrically using the SRB assay. The herbal extract and pure compounds were considered to have potent cytotoxicity if the IC50 values were ≤ 20 and ≤ 4 µg/mL, respectively. The % inhibition of cell growth was calculated by the equation shown below, and the IC50 values were calculated using the Prism program.
(§3) %Inhibitionofcellgrowth=MeanofODcontrol-MeanofODsample÷[…]×100 where: OD control = OD of medium with 2% of DMSO and OD sample = OD of crude extract.
(§4) SelectivityindexSI=IC50ofnon-cancerouscellline÷IC50ofcancercellline

[4] = tested on: cholangiocarcinoma cell line (KKU-M156); assay: Cytotoxic activity, antiproliferative SRB assay, KKU-M156; format: cell-based, human; settings: for IC50: Homo sapiens, KKU-M156, mean ± SEM, n = 3; for IC50 / Cytotoxicity against KKU-M156 (in words): SRB assay; for Selective index (SI), KKU-M156: IC50 of non-cancerous cells (HaCaT) / IC50 of KKU-M156
Experimental: as §1, §2, §3, §4

[5] = tested on: human keratinocyte cell line (HaCaT); assay: Cytotoxic activity, antiproliferative SRB assay, non-cancerous HaCaT; format: cell-based; settings: mean ± SEM, n = 3
Experimental: as §1, §2, §3

Row | SMILES | inhibition at 100 µg/mL ([1]; 100 µg/mL, read-out: %Inhibition of TNF-α production at conc. 100 µg/mL) [%] | IC50 [1] [µg/mL] | cytotoxicity at 100 µg/mL [2] [%] | IC50 [3] [µg/mL] | Selective index (SI), HepG2 [3] | Cytotoxicity against HepG2 (in words) [3] | IC50 [4] [µg/mL] | Selective index (SI), KKU-M156 [4] | Cytotoxicity against KKU-M156 (in words) [4] | IC50 [5] [µg/mL]
1 | CC(=O)Nc1ccc(O)cc1 [Acetaminophen] | 18.7 ± 1.93 | > 100 | 59.2 | – | – | – | – | – | – | –
2 | COc1cc(OC)c(CCC(=O)c2ccc(O)cc2)c(OC)c1 [Compound 1, 1-(4-hydroxyphenyl)-3-(2,4,6-trimethoxyphenyl)propan-1-one] | – | – | – | 20 ± 0.46 (≈ 63.3 µM) | 4.3 | moderate cytotoxicity | 21.3 ± 3.17 (≈ 67.2 µM) | 4.1 | moderate cytotoxicity | 86.1 ± 2.13 (≈ 272 µM)
3 | COc1ccc(CCC(=O)c2ccc(O)cc2)c(OC)c1 [Compound 2] | – | – | – | 20.7 ± 0.49 (≈ 72.3 µM) | 3.2 | moderate cytotoxicity | 33.2 ± 2.1 (≈ 116 µM) | 2.0 | moderate cytotoxicity | 66 ± 0.68 (≈ 231 µM)
4 | COc1ccc(C[C@]2(O)COc3cc(O)cc(O)c3C2=O)cc1 [Compound 3, (3S)-3,5,7-trihydroxy-3-[(4-methoxyphenyl)methyl]-2H-chromen-4-one] | – | – | – | 25.8 ± 1.56 (≈ 81.4 µM) | 1.8 | moderate cytotoxicity | 7.12 ± 0.56 (≈ 22.5 µM) | 6.5 | moderate cytotoxicity | 46.5 ± 0.88 (≈ 147 µM)
5 | CC[C@]1(O)C[C@H]2CN(CCc3c([nH]c4ccccc34)[C@@](C(=O)OC)(c3cc4c(cc3OC)N(C=O)[C@H]3[C@@](O)(C(=O)OC)[C@H](OC(C)=O)[C@]5(CC)C=CCN6CC[C@]43[C@@H]65)C2)C1 [Vincristine sulfate, reference compound] | – | – | – | 0.012 ± 0.0005 | 0.00058 | – | 0.0026 ± 0.001 | – | – | 7e-06
